From US9493468B2, “Antifungal 5,6-dihydro-4H-pyrrolo[1,2-a][1,4]benzo-diazepines and 6H-pyrrolo[1,2-a][1,4]benzodiazepines substituted with heterocyclic derivatives” (Janssen Pharmaceutica NV, priority 2011, dated 2016)

Legend:
Format in all cases: cell-based
[1] = tested on: Microsporum canis; assay: Antifungal activity in vitro, resazurin growth inhibition: Microsporum canis (B68128)
Method: (§1) The standard susceptibility screen is performed in 96-well plates (U-bottom, Greiner Bio-One). Serial dilutions (2-fold or 4-fold) of 20 mM compound stock solutions are made in 100% DMSO, followed by an intermediate dilution step in water. These serial dilutions (10 μl) are then spotted onto test-plates that can be stored in the dark at 4° C. for a maximum period of 2 weeks. An adequate broad dose-range is included with 64 μM as the highest in-test concentration. The culture medium RPMI-1640 is supplemented with L-glutamine, 2% glucose and buffered with 3-(N-morpholino)-propanesulfonic acid (MOPS) at pH 7.0±0.1.
(§2) The different fungal species/isolates (Table 3a) are cryopreserved and 1/1000 diluted in medium just prior to use. A standard inoculum of 200 μl containing 10^3 colony-forming unit (cfu) is then added to each well. A positive control (100% growth=fungal culture without antifungal) and a negative control (0% growth ═RPMI-MOPS medium) are included on each plate. Optimal incubation time and temperature are dependent on the fungal species and vary from 24 h for yeasts (37° C.) to one week or more for dermatophytes (27° C.). Inhibition of fungal growth is measured after adding 10 μl of 0.005% (w/v) resazurin (Sigma Aldrich) to each well, based on the principle that living cells convert the non-fluorescent blue resazurin into the pink and fluorescent resorufin, allowing fluorimetric reading (λex 550 nm and λem 590 nm) after an additional incubation period (‘resa’ time mentioned in Table 3a).

[2] = tested on: Trichophyton mentagrophytes; assay: Antifungal activity in vitro, resazurin growth inhibition: Trichophyton mentagrophytes (B70554)
Method: as §1, §2

[3] = tested on: Trichophyton rubrum; assay: Antifungal activity in vitro, resazurin growth inhibition: Trichophyton rubrum (B68183)
Method: as §1, §2

[4] = tested on: Sporothrix schenkii; assay: Antifungal activity in vitro, resazurin growth inhibition: Sporothrix schenkii (B62482)
Method: as §1, §2

[5] = tested on: Aspergillus fumigatus; assay: Antifungal activity in vitro, resazurin growth inhibition: Aspergillus fumigatus (B42928)
Method: as §1, §2

[6] = tested on: Candida parapsilosis; assay: Antifungal activity in vitro, resazurin growth inhibition: Candida parapsilosis (B66126)
Method: as §1, §2

[7] = tested on: Cryptococcus neoformans; assay: Antifungal activity in vitro, resazurin growth inhibition: Cryptococcus neoformans (B66663)
Method: as §1, §2

| Inf. B: Microsporum canis B68128, pIC50 [1] | Inf. G: Trichophyton mentagrophytes B70554, pIC50 [2] | Inf. C: Trichophyton rubrum B68183, pIC50 [3] | Inf. A: Sporothrix schenkii B62482, pIC50 [4] | Inf. E: Aspergillus fumigatus B42928, pIC50 [5] | Inf. D: Candida parapsilosis B66126, pIC50 [6] | Inf. F: Cryptococcus neoformans B66663, pIC50 [7] | SMILES |
| --- | --- | --- | --- | --- | --- | --- | --- |
| 5.18 | 4.47 | 5.70 | <4.19 | 4.30 | <4.19 | <4.19 | CCn1cc(C2=NCc3c(Cl)cccc3-n3cccc32)cn1 [Compound 60] |
| 4.66 | 4.39 | 4.52 | <4.19 | <4.19 | <4.19 | 4.44 | CCn1cc(C2=NCc3c(Cl)ccc(Cl)c3-n3cccc32)cn1 [Compound 61] |
| 4.59 | 4.86 | 5.22 | 4.51 | 4.70 | 4.23 | 5.15 | CCn1cc(C2=NCc3cc(Cl)cc(Cl)c3-n3cccc32)cn1 [Compound 62] |
| <4.19 | 5.58 | 5.72 | <4.19 | <4.19 | <4.19 | <4.19 | CCc1cc(C2=NCc3c(Cl)cccc3-n3cccc32)on1 [Compound 63] |
| 5.42 | 5.94 | 5.46 | <4.19 | <4.19 | <4.19 | 4.70 | CCc1nc(C2=NCc3c(Cl)cccc3-n3cccc32)cs1 [Compound 64] |
| 4.72 | 5.48 | 5.19 | 4.56 | <4.19 | <4.19 | 5.06 | CCc1nc(C2=NCc3c(Cl)cc(Cl)cc3-n3cccc32)cs1 [Compound 65] |
| 4.98 | 4.19 | 6.18 | <4.19 | <4.19 | <4.19 | <4.19 | CCc1cnc(C2=NCc3c(Cl)cccc3-n3cccc32)s1 [Compound 66] |
| 4.50 | <4.19 | 4.71 | <4.19 | <4.19 | <4.19 | <4.19 | CCc1cnc(C2=NCc3c(Cl)cc(Cl)cc3-n3cccc32)s1 [Compound 67] |
| 4.91 | 4.80 | 5.58 | <4.19 | <4.19 | <4.19 | 4.38 | CCc1csc(C2=NCc3c(Cl)cccc3-n3cccc32)n1 [Compound 68] |
| 4.71 | <4.19 | 5.09 | <4.19 | <4.19 | <4.19 | <4.19 | CCc1csc(C2=NCc3c(Cl)cc(Cl)cc3-n3cccc32)n1 [Compound 69] |
| 5.83 | 5.78 | 5.55 | 5.42 | <4.19 | <4.19 | 5.00 | CC(C)n1ccc(C2=NCc3cccc(Cl)c3-n3cccc32)cc1=O [Compound 71] |
| 5.61 | <4.49 | 6.05 | <4.49 | <4.49 | <4.49 | <4.49 | CCc1ccc(C2=NCc3c(Cl)cccc3-n3cccc32)nc1 [Compound 72] |
| 5.10 | <4.49 | 6.09 | <4.49 | <4.49 | <4.49 | <4.49 | CCc1ccc(C2=NCc3c(Cl)cc(Cl)cc3-n3cccc32)nc1 [Compound 73] |
| 6.45 | <4.19 | <4.19 | <4.19 | <4.19 | <4.19 | <4.19 | CCc1ccc(C2=NCc3c(ccc(Cl)c3Cl)-n3cccc32)cn1 [Compound 75] |
| 5.41 | 4.47 | 6.18 | <4.19 | 5.42 | 5.07 | <4.19 | Fc1cc(Cl)c2c(c1)-n1cccc1C(c1ccc(Cl)nc1)=NC2 [Compound 78] |
| 5.09 | 5.23 | 5.79 | 5.42 | 5.59 | <4.19 | <4.19 | Fc1cccc2c1CN=C(c1cnc(Cl)c(Cl)c1)c1cccn1-2 [Compound 80] |

| SMILES | Inf. B: Microsporum canis B68128, pIC50 [1] | Inf. G: Trichophyton mentagrophytes B70554, pIC50 [2] | Inf. C: Trichophyton rubrum B68183, pIC50 [3] | Inf. A: Sporothrix schenkii B62482, pIC50 [4] | Inf. E: Aspergillus fumigatus B42928, pIC50 [5] | Inf. D: Candida parapsilosis B66126, pIC50 [6] | Inf. F: Cryptococcus neoformans B66663, pIC50 [7] |
| --- | --- | --- | --- | --- | --- | --- | --- |
| Cl.c1ccc2c(c1)CNC(c1cc3ccccc3s1)c1cccn1-2 (racemic) [Compound 52] | 5.70 | 5.70 | 6.13 | 5.40 | 5.30 | <4.19 | 6.00 |
| Cl.Clc1cccc2c1CNC(c1cc3ccccc3s1)c1cccn1-2 (racemic) [Compound 53] | 5.70 | 5.70 | 6.10 | 4.92 | 5.40 | <4.19 | 5.70 |
| Cl.Clc1cc(Cl)c2c(c1)-n1cccc1C(c1cc3ccccc3s1)NC2 (racemic) [Compound 56] | <4.19 | 4.48 | 5.71 | <4.19 | <4.19 | <4.19 | <4.19 |
| Cc1ccc(Cl)c2c1-n1cccc1C(c1cc3ccccc3s1)NC2.Cl (racemic) [Compound 57] | 5.24 | <4.19 | 5.10 | <4.19 | <4.19 | <4.19 | <4.19 |
| Cl.Clc1cccc2c1CNC(c1ccc3scc(Cl)c3c1)c1cccn1-2 (racemic) [Compound 58] | 5.08 | 5.09 | 6.29 | <4.19 | 4.48 | <4.19 | 4.58 |
| Cl.Clc1cccc2c1CNC(c1nc3ccccc3s1)c1cccn1-2 (racemic) [Compound 59] | 6.22 | 6.00 | 6.47 | 4.85 | <4.19 | <4.19 | <4.19 |
